Experimental data taken from PubChem BioAssay (NCI).
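Values below derive from 48-hour exposures of cells grown in 96-well plates, with endpoints linearly interpolated between the two concentrations bracketing the appropriate inhibition level. TGI: concentration producing complete growth inhibition.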

Assays:
Assay in all cases: NCI tumour cell line growth inhibition, 48 h
RPMI-8226 leukemia = system: RPMI-8226 leukemia
SF-539 CNS = system: SF-539 CNS
HCT-15 colon = system: HCT-15 colon
DU-145 prostate = system: DU-145 prostate
SK-MEL-5 melanoma = system: SK-MEL-5 melanoma
HS 578T breast = system: HS 578T breast
SF-268 CNS = system: SF-268 CNS
TK-10 renal = system: TK-10 renal
NCI/ADR-RES ovarian = system: NCI/ADR-RES ovarian
SR leukemia = system: SR leukemia

| SMILES | TGI (RPMI-8226 leukemia) | TGI (SF-539 CNS) | TGI (HCT-15 colon) | TGI (DU-145 prostate) | TGI (SK-MEL-5 melanoma) | TGI (HS 578T breast) | TGI (SF-268 CNS) | TGI (TK-10 renal) | TGI (NCI/ADR-RES ovarian) | TGI (SR leukemia) |
| --- | --- | --- | --- | --- | --- | --- | --- | --- | --- | --- |
| CC1=C(C)C(=O)OC(C(C)(O)C2(O)CC3OC34C3CC(O)C56OC5C=CC(=O)C6(C)C3CCC42C)C1 (configuration not stated) | 5.34 µM | 6.39 µM | 3.85 µM | 15.8 µM | > 24.1 µM | 16.3 µM | 7.96 µM | 7.43 µM | – | – |
| Cc1[nH]n(-c2nc(-c3ccccc3)cc(=O)[nH]2)c(=O)c1CCO | > 100 µM | > 100 µM | > 100 µM | > 100 µM | > 100 µM | > 100 µM | > 100 µM | > 100 µM | > 100 µM | – |
| NCCCn1c(Cl)nc2ccccc21 | > 100 µM | – | > 100 µM | > 100 µM | > 100 µM | > 100 µM | > 100 µM | – | > 100 µM | > 100 µM |
| CC(C)CC1c2[nH]c3ccccc3c2C[C@H]2C(=O)NC(Cc3c[nH]c4ccccc34)C(=O)N12 (some centres not stated) | 48.7 µM | – | 47.2 µM | > 100 µM | 26 µM | 26.2 µM | 56.3 µM | 24.5 µM | 56.4 µM | 45.5 µM |
| O=C(NC(=S)Nc1ccc(Br)cc1)c1ccc2c(c1)Sc1ccccc1O2 | – | > 100 µM | > 100 µM | > 100 µM | > 100 µM | > 100 µM | > 100 µM | > 100 µM | > 100 µM | > 100 µM |
| CC1=NNC(=O)C1C1(C(=O)O)CC(c2c[nH]c3ccccc23)=NC(=S)N1 (configuration not stated) | 84.5 µM | 67.9 µM | > 100 µM | > 100 µM | 27.5 µM | 47.7 µM | > 100 µM | > 100 µM | > 100 µM | – |
| CCC1c2[nH]c3ccccc3c2C[C@H]2C(=O)NC(C)C(=O)N12 (some centres not stated) | > 100 µM | – | > 100 µM | > 100 µM | > 100 µM | > 100 µM | > 100 µM | > 100 µM | > 100 µM | > 100 µM |
| O=C(COc1cc(=O)oc2ccccc12)c1ccccc1 | > 100 µM | 58.7 µM | > 100 µM | > 100 µM | > 100 µM | 73.7 µM | > 100 µM | > 100 µM | – | > 100 µM |
| O=C(CC(C(=O)c1ccsc1)c1cccs1)c1ccccc1 (configuration not stated) | > 100 µM | > 100 µM | > 100 µM | > 100 µM | > 100 µM | > 100 µM | > 100 µM | > 100 µM | – | > 100 µM |
| CC1=C[P+](c2ccccc2)(c2ccccc2)c2ccccc2O1 | – | 31.3 µM | > 100 µM | > 100 µM | 13.5 µM | 11.6 µM | > 100 µM | 94.4 µM | > 100 µM | 8.28 µM |
| Cc1cn(S(=O)(=O)c2ccccc2)c2c(OCc3ccccc3)cc([N+](=O)[O-])cc12 | > 100 µM | > 100 µM | > 100 µM | > 100 µM | > 100 µM | > 100 µM | > 100 µM | > 100 µM | > 100 µM | – |
